The values that follow come from US9464280B1, “Beta-lactamases with improved properties for therapy” (priority 2014, dated 2016).

≈ marks a conversion by molar mass, not a printed value. Where two headings read alike, the source gives them in different places.

The test system of series [1] is Escherichia coli ATCC 25922. Kind of series: microbe, parasite or virus in culture. The class given is cell-based. The settings on record: for EC50 / EC90: Escherichia coli, ATCC25922, no enzyme.
The test system of series [2] is Escherichia coli ATCC 25922. Kind of series: microbe, parasite or virus in culture. The settings on record: for EC90: Escherichia coli, ATCC25922, no enzyme. The format is cell-based. The protocol:
(§1) Escherichia coli strain 25922 was cultured from glycerol stocks to logarithmic growth in cation adjusted Mueller-Hinton broth at 37° C. in an atmospheric environment and diluted in cation adjusted Mueller-Hinton broth to achieve a starting in well concentration of 5×10^5 CFU/mL. Serial 2-fold dilution of antimicrobial compounds were prepared in cation adjusted Mueller-Hinton broth to achieve final in well concentration of 128 μg/mL to 0.13 μg/mL for ampicillin and 4 μg/mL 4 ng/mL in the absence or presence of serial 10-fold dilutions of P1A, P3A, or P4A β-lactamase standard, 5 pg/mL to 50 ng/mL for ampicillin and […] to 500 ng/mL for ceftriaxone, ceftazidime, meropenem, cefepime, cefazolin, amp/sulbactam, cefoperazone, cefotaxime, and cefuroxime. Antibiotics were either added to the P1A and incubated for 30 min at 37° C. (pre-incubation) prior to addition of bacteria, or added to the plates following the addition of P1A, P3A, P4A, and bacteria (simultaneous). All concentrations and combinations were evaluated in triplicate in a 96-well plate format that contained media only, compound plus media only (colorimetric control), and untreated bacterial controls.
Next, the 90% effective inhibitory concentration (EC90) of ampicillin, ceftriaxone, ceftazidime, meropenem, cefepime, cefazolin, amp/sulbactam, cefoperazone, cefotaxime, and cefuroxime against Escherichia coli was determined in the absence and presence of P1A, P3A, or P4A β-lactamase. For the purposes of these studies, the stated effective concentration was the initial concentration of ampicillin, ceftriaxone, ceftazidime, meropenem, cefepime, cefazolin, amp/sulbactam, cefoperazone, cefotaxime, and cefuroxime added at the beginning of the experiment, and not a concentration measured during the course of the experiment or at the end of the incubation period.
Specifically, the assay was performed by diluting (2-fold steps) the chosen antibiotic across the rows of a 96 well dish. The MIC was determined as the point at which the diluted antibiotic transitions from killing to not killing the bacteria (in this case, an E. coli strain that is sensitive to all antibiotics). P1A, P3A, and P4A were diluted (10 fold steps) down the columns (the β-lactamase concentrations increased down the columns). […] The latter point was used as the cut-off point. […] However, for this assay, the absolute MIC is not the most important parameter. The most relevant readout was the β-lactamase concentration at which the apparent MIC increases to the maximum amount of antibiotic tested.
E coli 29522 was incubated overnight in the presence of serial dilutions of antibiotic and the indicated amounts of β-lactamase protein from cell culture supernatants in a 96 well plate. Bacterial density (OD625) of the cultures was measured and the concentration at which the density was reduced by 90% relative to an untreated bacterial control (EC90) was determined. The assay was performed on two separate days and the data reported as Rep1 and Rep2. NA=not assayed.
E coli 29522 was incubated overnight in the presence of serial dilutions of antibiotic and the indicated amounts of β-lactamase protein from cell culture supernatants in a 96 well plate. Bacterial density (OD625) of the cultures was measured and the concentration at which the density was reduced by 90% relative to an untreated bacterial control (EC90) was determined.

Series [3] has as its system Escherichia coli ATCC 25922. Kind of series: Microbroth dilution: EC50 of ampicillin and ceftriaxone in absence and presence of P1A. The settings on record: Escherichia coli, ATCC25922, P1A 0, read-out: Ampiellin EC50. The format is cell-based. The protocol:
as §1
The 50% effective inhibitory concentration (EC50) of ampicillin and ceftriaxone against Escherichia coli was determined in the absence and presence of P1A β-lactamase. For the purposes of these studies, the stated effective concentration was the initial concentration of ampicillin or ceftriaxone added at the beginning of the experiment, and not a concentration measured during the course of the experiment or at the end of the incubation period.
Antibiotics were either added to the P1A and incubated for 30 min at 37° C. (Pre-incubation) prior to addition of bacteria, or added to the plates following the addition of P1A and bacteria (Simultaneous). All concentrations and combinations were evaluated in triplicate in a 96-well plate format. Following overnight incubation, the 0D625 of the plates was measured in a Spectramax 384 plate reader and the data were imported into a customized Excel spreadsheet for the determination of the 50% effective inhibitory concentration at (EC50) by linear regression analysis. For the purposes of these studies, the stated effective concentration is the initial concentration of ampicillin or ceftriaxone added at the beginning of the experiment, and not a concentration measured during the course of the experiment or at the end of the incubation period.
Antibiotics were either added to the P1A and incubated for 30 min at 37° C. (Pre-incubation) prior to addition of bacteria, or added to the plates following the addition of P1A and bacteria (Simultaneous). All concentrations and combinations were evaluated in triplicate in a 96-well plate format. Following overnight incubation, the OD625 of the plates was measured in a Spectramax 384 plate reader and the data were imported into a customized Excel spreadsheet for the determination of the 50% effective inhibitory concentration (EC50).
Antibiotics were added to the P1A bacteria (Simultaneous). All concentrations and combinations were evaluated in triplicate in a 96-well plate format. Following overnight incubation, the OD625 of the plates was measured in a Spectramax 384 plate reader and the data were imported into a customized Excel spreadsheet for the determination of the 50% effective inhibitory concentration at (EC50) by linear regression analysis.
For orientation: Broth dilution looks for growth in wells or tubes with falling amounts of substance.

Series [4] in a line: Preliminary enzymatic activity of P1A mutants from B. subtilis supernatants. The class given is biochemical. To be noted: B. subtilis supernatant, one substrate concentration. As to the method: β-lactamase activity of the mutants was further characterised from E. coli cell lysates and B. subtilis growth supernatant with ampicillin, cefotaxime, ceftriaxone, cefuroxime, ceftazidime, meropenem and imipenem. The activities were determined using only one substrate concentration of each antibiotic tested. Selection of the antibiotic concentration was done with the antibiotic concentration as high as was practical, [S]>>Km. Based on these preliminary experiments, more accurate kinetic parameters were determined for a couple of mutants from both the site-directed and the random mutagenesis research lines. All the mutant enzymes selected for more detailed study were expressed in the B. subtilis host strain RS303. The cells carrying the mutated proteins were grown in minimal medium over-night after which the cells were harvested and the supernatant was concentrated in 1:10 with Amicon Ultra-4 centrifugal devices, MWCO 10000 (Amicon). Protein concentration in each culture supernatant was estimated from 12% SDS-PAGE (Criterion XT Bis-Tris, BioRad, Calif., USA) using the P1A reference material A18K31 as a standard. Kinetic parameters were measured for cefotaxime, ceftriaxone and cefuroxime for each selected mutant strain. The site-directed mutants were designed to hydrolyze cefotaxime and random mutants were screened with ceftriaxone, which made these antibiotics natural choices for determining kinetic parameters.

The mark [5] stands for this setting: no enzyme, 2nd value, high test 2 μg/mL.

As usually defined, the EC50 is the concentration at which the effect is half-maximal. `CO/N=C(\C(=O)N[C@@H]1C(=O)N2C(C(=O)[O-])=C(C[N+]3(C)CCCC3)CS[C@H]12)c1csc(N)n1` [Cefepime]: the EC50 was 0.06 µg/mL (≈ 0.125 µM) in series [1] (1st value, high test 2 μg/mL, read-out: Cefepime EC50) and 0.03 µg/mL (≈ 0.0624 µM) in series [1] (2nd value, high test 2 μg/mL, read-out: Cefepime EC50). Further, the “Cefepime EC50” value in series [1] (setting [5]) is given as 0.03/0.03 μg/mL.

As usually defined, the EC90 is the concentration needed for an effect of 90%. Turning to `CO/N=C(\C(=O)N[C@@H]1C(=O)N2C(C(=O)O)=C(COC(C)=O)CS[C@H]12)c1csc(N)n1` [Cefotaxime], the concentration for an effect of 90% (EC90) in series [1] (1st value, high test 2 μg/mL, read-out: Cefotaxime EC90) was found to be 0.004 µg/mL (≈ 0.00878 µM); in series [2] (2nd value, high test 2 μg/mL, read-out: Cefotaxime EC90), 0.008 µg/mL. Also, the “Cefotaxime EC90” value in series [1] (no enzyme, 1st value, high test 2 μg/mL) is 0.004/0.004 μg/mL; in series [1] (setting [5]), 0.004/0.004 μg/mL.

With `C[C@@H](O)[C@H]1C(=O)N2C(C(=O)O)=C(S[C@@H]3CN[C@H](C(=O)N(C)C)C3)[C@H](C)[C@H]12` [Meropenem], the EC50 in series [1] (1st value, high test 1 μg/mL, read-out: Meropenem EC50) was 0.06 µg/mL (≈ 0.156 µM); in series [1] (2nd value, high test 1 μg/mL, read-out: Meropenem EC50), 0.06 µg/mL (≈ 0.156 µM). Also, in series [1] (no enzyme, 2nd value, high test 1 μg/mL), the “Meropenem EC50” value worked out at 0.03 µg/mL.

On to `CC1(C)S[C@@H]2[C@H](NC(=O)[C@H](N)c3ccccc3)C(=O)N2[C@H]1C(=O)O` [Ampicillin], for which the EC50 in series [1] (Rep 1, Table 15, read-out: Ampiellin EC50) is 2 µg/mL (≈ 5.72 µM); in series [1] (Rep 2, Table 15, read-out: Ampiellin EC50) it was 4 µg/mL (≈ 11.4 µM); in series [3] (pre-incubation, Table 12) it was 16 µg/mL; in series [3] (pre-incubation, Table 13), 16 µg/mL; in series [3] (simultaneous, Table 12), 16 µg/mL; in series [3] (simultaneous, Table 13), 16 µg/mL. For the same molecule, in series [3] (simultaneous, Table 14 repeat analysis), the half-maximal effective concentration (EC50) is 16 µg/mL.

As for `Cc1nnc(SCC2=C(C(=O)O)N3C(=O)[C@@H](NC(=O)Cn4cnnn4)[C@H]3SC2)s1` [Cefazolin], the EC90 amounted to 2 µg/mL (≈ 4.4 µM) in series [1] (1st value, high test 64 μg/mL, read-out: Cefazolin EC90) and 2 µg/mL (≈ 4.4 µM) in series [1] (2nd value, high test 64 μg/mL, read-out: Cefazolin EC90).

With IS203: P1A with T160F, in series [4], the “AMP = ampicillin enzymatic activity” value is 0.01 multiples of P1A, the “CAZ = ceftazidime enzymatic activity” value is 0.13 multiples of P1A, the “CRO = ceftriaxone enzymatic activity” value was 0.00 multiples of P1A and the “CTX = cefotaxime enzymatic activity” value is reported as 0.01 multiples of P1A. Besides, the “CXM = cefuroxime enzymatic activity” value in series [4] was 0.00 multiples of P1A.

As for `CO/N=C(\C(=O)N[C@@H]1C(=O)N2C(C(=O)O)=C(COC(N)=O)CS[C@H]12)c1ccco1` [Cefuroxime], the EC90 in series [1] (2nd value, high test 128 μg/mL, read-out: Cefuroxime EC90) worked out at 4 µg/mL (≈ 9.43 µM); in series [2] (1st value, high test 128 μg/mL, read-out: Cefuroxime EC90), 4 µg/mL. Also, the “Cefuroxime EC90” value in series [1] (no enzyme, 2nd value, high test 128 μg/mL) is 2.0 µg/mL; in series [2] (no enzyme, 1st value, high test 128 μg/mL) it was 2.0 µg/mL.

Take `CCN1CCN(C(=O)N[C@@H](C(=O)N[C@@H]2C(=O)N3C(C(=O)O)=C(CSc4nnnn4C)CS[C@H]23)c2ccc(O)cc2)C(=O)C1=O` [Cefoperazone]: the EC90 in series [1] (1st value, high test 8 μg/mL, read-out: Cefoperazone EC90) is 0.25 µg/mL (≈ 0.387 µM); in series [1] (2nd value, high test 8 μg/mL, read-out: Cefoperazone EC90), 0.13 µg/mL (≈ 0.201 µM). The “Cefoperazone EC90” value in series [1] (no enzyme, 2nd value, high test 8 μg/mL) was 0.25/0.25 μg/mL; in series [2] (no enzyme, 1st value, high test 8 μg/mL), 0.25/0.25 μg/mL.

In the case of `CC(C)(O/N=C(\C(=O)N[C@@H]1C(=O)N2C(C(=O)[O-])=C(C[n+]3ccccc3)CS[C@H]12)c1csc(N)n1)C(=O)O` [Ceftazidime], the EC50 in series [1] (1st value, high test 4 μg/mL, read-out: Ceftazidime EC50) came out at 0.13 µg/mL (≈ 0.238 µM). The “Ceftazidime EC50” value in series [1] (no enzyme, 1st value, high test 4 μg/mL) was 0.13/0.13 μg/mL; in series [1] (no enzyme, 2nd value, high test 4 μg/mL), 0.5 µg/mL.
